Data from patent US20200392116A1, “SUBSTITUTED HETEROCYCLES AS c-MYC TARGETING AGENTS” (NORTHWESTERN UNIVERSITY, priority 2019, published 2020).

Experiment: Potency code of Table 2 (assay not stated)

SMILES | Potency code
Cn1nc(C(F)(F)F)cc1-c1ccc(OCCc2ccc(Cl)cc2)c(-c2cc(C(F)(F)F)cc(C(F)(F)F)c2)c1O [NUCC-0201025] | ++ (30-40 ++)
Cn1nc(-c2ccc(OCCc3ccc(Cl)cc3)c(-c3cc(C(F)(F)F)cc(C(F)(F)F)c3)c2O)cc1C(F)(F)F [NUCC-0201026] | + (>40 +)
COc1ccc(CCOc2ccc(-c3cc(C(F)(F)F)n[nH]3)c(O)c2-c2cc(C(F)(F)F)cc(C(F)(F)F)c2)cc1 [NUCC-0201027] | +++ (10-30 +++)
COc1ccc(CCOc2ccc(-c3cc(C(F)(F)F)nn3C)c(O)c2-c2cc(C(F)(F)F)cc(C(F)(F)F)c2)cc1 [NUCC-0201028] | + (>40 +)
COc1ccc(CCOc2ccc(-c3cc(C(F)(F)F)n(C)n3)c(O)c2-c2cc(C(F)(F)F)cc(C(F)(F)F)c2)cc1 [NUCC-0201029] | + (>40 +)
CC(C)COc1ccc(-c2cc(C(F)(F)F)n[nH]2)c(O)c1-c1cc(C(C)(F)F)cc(C(F)(F)F)c1 [NUCC-0201030] | + (>40 +)
CCCCOc1ccc(-c2cc(C(F)(F)F)n[nH]2)c(O)c1-c1cc(C(F)(F)F)cc(C(F)(F)F)c1 [NUCC-0201031] | + (>40 +)
Oc1c(-c2cc(C(F)(F)F)n[nH]2)ccc(OCc2ccc(F)cc2)c1-c1cc(C(F)(F)F)cc(C(F)(F)F)c1 [NUCC-0201033] | + (>40 +)
Cn1nc(C(F)(F)F)cc1-c1ccc(OCc2ccc(F)cc2)c(-c2cc(C(F)(F)F)cc(C(F)(F)F)c2)c1O [NUCC-0201034] | + (>40 +)
Cn1nc(-c2ccc(OCc3ccc(F)cc3)c(-c3cc(C(F)(F)F)cc(C(F)(F)F)c3)c2O)cc1C(F)(F)F [NUCC-0201035] | + (>40 +)
CS(=O)(=O)c1cccc(-c2c(OCc3ccc(Cl)cc3)ccc(-c3cc(C(F)(F)F)n[nH]3)c2O)c1 [NUCC-0201036] | ++ (30-40 ++)
Oc1c(-c2cc(C(F)(F)F)n[nH]2)ccc(OCc2ccc(Cl)cc2)c1-c1cncc(C(F)(F)F)c1 [NUCC-0201037] | +++ (10-30 +++)
N#Cc1cncc(-c2c(OCc3ccc(Cl)cc3)ccc(-c3cc(C(F)(F)F)n[nH]3)c2O)c1 [NUCC-0201038] | ++++ (<10 ++++)
CCOc1ncc(C(F)(F)F)cc1-c1c(OCc2ccc(Cl)cc2)ccc(-c2cc(C(F)(F)F)n[nH]2)c1O [NUCC-0201039] | +++ (10-30 +++)
Oc1c(-c2cc(C(F)(F)F)n[nH]2)ccc(OCc2ccc(Cl)cc2)c1-c1cncc(F)c1 [NUCC-0201040] | +++ (10-30 +++)
COc1ccc(COc2ccc(-c3cc(C(F)(F)F)n[nH]3)c(O)c2-c2cc(C(F)(F)F)cc(C(F)(F)F)c2)cc1 [NUCC-0201041] | + (>40 +)
COc1ccc(COc2ccc(-c3cc(C(F)(F)F)nn3C)c(O)c2-c2cc(C(F)(F)F)cc(C(F)(F)F)c2)cc1 [NUCC-0201042] | + (>40 +)
COc1ccc(COc2ccc(-c3cc(C(F)(F)F)n(C)n3)c(O)c2-c2cc(C(F)(F)F)cc(C(F)(F)F)c2)cc1 [NUCC-0201043] | + (>40 +)
CCCCCCOc1ccc(-c2cc(C(F)(F)F)n[nH]2)c(O)c1-c1cncc(C(F)(F)F)c1 [NUCC-0201192] | +++ (10-30 +++)
CCCCOc1ccc(-c2cc(C(F)(F)F)n[nH]2)c(O)c1-c1cncc(C#N)c1 [NUCC-0201193] | ++++ (<10 ++++)
CCCCCCOc1ccc(-c2cc(C(F)(F)F)n[nH]2)c(O)c1-c1cncc(C#N)c1 [NUCC-0201194] | + (>40 +)
CC(C)CCOc1ccc(-c2cc(C(F)(F)F)n[nH]2)c(O)c1-c1cncc(C#N)c1 [NUCC-0201195] | ++++ (<10 ++++)
CCCOc1ccc(-c2cc(C(F)(F)F)n[nH]2)c(O)c1-c1cc(C(F)(F)F)cc(C(F)(F)F)c1 [NUCC-0201197] | +++ (10-30 +++)

SMILES | Potency code
[N-]=[N+]=NCCOCCOCCOCC(=O)Nc1ccc(COc2ccc(-c3cc(C(F)(F)F)n[nH]3)c(O)c2-c2cc(C(F)(F)F)cc(C(F)(F)F)c2)cc1 [NUCC-0201199] | +++ (10-30 +++)
[N-]=[N+]=NCCOCCOCCOCCOCC(=O)Nc1ccc(COc2ccc(-c3cc(C(F)(F)F)n[nH]3)c(O)c2-c2cc(C(F)(F)F)cc(C(F)(F)F)c2)cc1 [NUCC-0201200] | + (>40 +)
Nc1ccc(COc2ccc(-c3cc(C(F)(F)F)n[nH]3)c(O)c2-c2cc(C(F)(F)F)cc(C(F)(F)F)c2)cc1 [NUCC-0201201] | ++++ (<10 ++++)
CCCCOc1ccc(-c2cc(C(F)(F)F)nn2C)c(O)c1-c1cncc(C(F)(F)F)c1 [NUCC-0201204] | +++ (10-30 +++)
CCCCCCOc1ccc(-c2cc(C(F)(F)F)nn2C)c(O)c1-c1cncc(C(F)(F)F)c1 [NUCC-0201205] | ++++ (<10 ++++)
CC(C)CCOc1ccc(-c2cc(C(F)(F)F)nn2C)c(O)c1-c1cncc(C(F)(F)F)c1 [NUCC-0201206] | ++++ (<10 ++++)
CC(C)CCOc1ccc(-c2cc(C(F)(F)F)nn2C)c(O)c1-c1cncc(C#N)c1 [NUCC-0201208] | ++++ (<10 ++++)
CCCCCCOc1ccc(-c2cc(C(F)(F)F)n(C)n2)c(O)c1-c1cncc(C(F)(F)F)c1 [NUCC-0201210] | + (>40 +)
CC(C)CCOc1ccc(-c2cc(C(F)(F)F)n(C)n2)c(O)c1-c1cncc(C(F)(F)F)c1 [NUCC-0201211] | + (>40 +)
CCCCCCOc1ccc(-c2cc(C(F)(F)F)n(C)n2)c(O)c1-c1cncc(C#N)c1 [NUCC-0201212] | + (>40 +)
CC(C)CCOc1ccc(-c2cc(C(F)(F)F)n(C)n2)c(O)c1-c1cncc(C#N)c1 [NUCC-0201213] | ++++ (<10 ++++)
C#CCOc1ccc(COc2ccc(-c3cc(C(F)(F)F)n[nH]3)c(O)c2-c2cc(C(F)(F)F)cc(C(F)(F)F)c2)cc1 [NUCC-0201219] | ++++ (<10 ++++)
COc1ccc(-c2cc(C(F)(F)F)[nH]n2)c(O)c1-c1cc(C(F)(F)F)cc(C(F)(F)F)c1 [NUCC-0201220] | ++++ (<10 ++++)
COc1ccc(-c2cc(C(F)(F)F)n(C)n2)c(O)c1-c1cc(C(F)(F)F)cc(C(F)(F)F)c1 [NUCC-0201221] | + (>40 +)
COc1ccc(-c2cc(C(F)(F)F)nn2C)c(O)c1-c1cc(C(F)(F)F)cc(C(F)(F)F)c1 [NUCC-0201222] | +++ (10-30 +++)
CCCCOc1ccc(-c2cc(C(F)(F)F)n[nH]2)c(O)c1-c1ccc(Cl)c(C(F)(F)F)c1 [NUCC-0201225] | + (>40 +)
CCCCOc1ccc(-c2cc(C(F)(F)F)nn2C)c(O)c1-c1ccc(Cl)c(C(C)(C)F)c1 [NUCC-0201226] | +++ (10-30 +++)
CCCCOc1ccc(-c2cc(C(F)(F)F)n(C)n2)c(O)c1-c1ccc(Cl)c(C(F)(F)F)c1 [NUCC-0201227] | ++++ (<10 ++++)
Cn1nc(C(F)(F)F)cc1-c1ccc(OCc2ccc(Cl)cc2)c(-c2cncc(C(F)(F)F)c2)c1O [NUCC-0201630] | + (>40 +)
Cn1nc(-c2ccc(OCc3ccc(Cl)cc3)c(-c3cncc(C(F)(F)F)c3)c2O)cc1C(F)(F)F [NUCC-0201631] | + (>40 +)
Cn1nc(C(F)(F)F)cc1-c1ccc(OCc2ccc(Cl)cc2)c(-c2cncc(C#N)c2)c1O [NUCC-0201632] | +++ (10-30 +++)
Cn1nc(-c2ccc(OCc3ccc(Cl)cc3)c(-c3cncc(C#N)c3)c2O)cc1C(F)(F)F [NUCC-0201633] | + (>40 +)
